Measured values published in patent US20020028942A1, “Novel process and compound” (priority 1997, published 2002).
Structures can show the parent of a compound that is named as a salt. One block for each compound: values may come before it.

Key:
[1] = Solubility / dissolution in water; type: physicochemical
Excerpt: Paroxetine hydrochloride has been described in the literature as a crystalline hemihydrate (see EP-A-0223403 of Beecham Group) and as various crystalline anhydrate forms (see WO96/24595 of SmithKline Beecham plc). These known forms are not ideally suited for all pharmaceutical applications. […] Furthermore, liquids can be dispensed into unit dosages more conveniently and precisely than solids, and the use of liquid feedstocks reduces hazards associated with dust. In addition, the known solid forms of paroxetine hydrochloride are relatively insoluble and are slow to dissolve completely.
The product is homogenous without any further processing and is obtained in 100% yield, a higher yield than is possible in any crystallisation process.

[2] = Stability of aqueous solutions; type: physicochemical
Excerpt: The feedstock for freeze-drying may be prepared conveniently by, for example, dissolution of paroxetine free base in aqueous hydrochloric acid, although other solid forms of paroxetine hydrochloride may also be dissolved. For example, the feedstock may be prepared by dissolving amorphous paroxetine hydrochloride or a crystalline paroxetine hydrochloride anhydrate, hydrate or solvate in suitable solvent. The solvent used may be pure water or a mixture of water with compatible organic solvents. […] Suitable concentrations of paroxetine hydrochloride for freeze-drying are in the range 1 to 30% by weight, preferably in the range 5% to 20% by weight.
Processing at elevated temperature may be employed to reduce the risk of unwanted crystallisation during processing but is not essential.

[3] = known forms, well documented in the literature; cited from earlier work

- dissolution of the freeze-dried product [1]: dissolves quickly and completely
Structure (SMILES): Fc1ccc([C@@H]2CCNC[C@H]2COc2ccc3c(c2)OCO3)cc1 [freeze-dried paroxetine hydrochloride, paroxetine hydrochloride]
- stability of reconstituted aqueous solution ([2]; freeze-dried product dispersed in water, concentration for parenteral dosage, supersaturated with respect to hemihydrate): sufficiently stable for liquid dispensing

Structure (SMILES): Fc1ccc([C@@H]2CCNC[C@H]2COc2ccc3c(c2)OCO3)cc1 [paroxetine hydrochloride hemihydrate, Paroxetine hydrochloride hemihydrate]
- stability of aqueous solution of a concentration suitable for freeze-drying ([2]; highly supersaturated with respect to paroxetine hydrochloride hemihydrate): sufficiently stable for sterile filtration and liquid processing

Structure (SMILES): Fc1ccc([C@@H]2CCNC[C@H]2COc2ccc3c(c2)OCO3)cc1 [paroxetine hydrochloride, (−)trans isomer of 4-(4′-fluorophenyl)-3-(3′,4′-methylenedioxyphenoxymethyl)-piperidine]
- stability of aqueous solution ([2]; ambient temperature, once dissolved, in the absence of seeds of a crystalline form): stable at ambient temperature for many days
- solubility in water [3]: low solubility in water
